According to patent US20110093959A1, “CRYPTOTIS PARVA SCREENING MODEL FOR ANTIEMETIC POTENTIAL” (priority 2008, published 2011):

Experiments:
Assay type in all cases: in vivo, Cryptotis parva
Least Shrew [1] = test: Emetic effect of arachidonic acid metabolites and leukotrienes in the Least Shrew; settings: found experimentally
Method: Varying doses of leukotriene LTC4 were administered by intraperitoneal injection, and dose-response emetic effects recorded for 30 min post-injection observation period. The graph in FIG. 20 depicts enhancements in the frequency (mean±S.E.M.) of emesis.

[2] = Analysis of SP in serum, gut and brain tissues following intraperitoneal injection of an emetic dose of SP; settings: SP 50 mg/kg i.p.
Method: Different groups of shrews were injected with a 50 mg/kg emetic dose of SP (i.p.) and were sacrificed at 5 min, 15 min, and 30 min (n=5-6 animals per group) post injection. Blood serum as well as two different brain (frontal cortex and brain stem) and gut (duodenum and jejunum) tissue samples were collected for the determination of SP levels relative to a saline-treated shrew control group (n=6). The brain SP concentration was determined in all of the cited exposure times, whereas gut SP tissue levels were analyzed for the 0 min (control), 5 min and 15 min exposure periods Likewise, serum SP concentrations were determined at the 0 min, 5 min and 15 min exposure periods as well as in a 10 min SP-exposed shrew group.
To collect blood, shrews were rapidly euthanized with isoflurane (Vedco, St. Joseph, Mo.) one at a time. Then, each shrew was laid on its back and taped to a metal tray, and cut transversely under the diaphragm and along the sides towards the arms to allow the ribcage to be lifted away. The heart was then held with forceps, and a 0.5 cc syringe with 28 ga hypodermic needle was inserted into the left ventricle. Blood was pulled gently into the syringe directly from the ventricle until the descending aorta appeared clear (approximately 50 μl -100 μl total volume), and rapidly transferred to a non-heparinized tube for centrifugation and removal of red blood cells. Brain and gut tissue were rapidly dissected following blood collection and decapitation. Preliminary sample preparation procedures were carried out to optimize detection conditions.
Because proteases can be deactivated by heat (El-Salhy, 107 Upsala J. Med. Sci. 101-10 (2002)), at basic pH (Crawford & Kalmakoff, 24 J. Virol. 412-15 (1977)), and in the presence of EDTA (Wei & Bobek, 49 Antimicrob. Agents Chemother. 2336-42 (2005)), the entire intestine was immediately immersed in a 70° C. preheated, 5 ml solution of normal saline containing […] EDTA at pH8.0. After a 5 min exposure, each gut was thrice flushed and rinsed with 5 ml of the saline solution and then allowed to cool down naturally to room temperature. Then, each gut was dissected and the duodenum and jejunum samples were placed separately in test tubes containing 1 ml assay buffer. The dissected frontal cortex and brain stem samples were placed in different test tubes containing 0.5 ml assay buffer. Each sample was homogenized using a tissue tearor (Biospec) set at level 5 for 15sec. The homogenates were then centrifuged at 17,000×g for 15 min at 4° C. The supernatants were obtained and saved at −80° C. until used for the EIA detection of SP. Samples were analyzed for SP using the “Correlate-EIA” kit from Assay Designs using a microplate reader.
(§1) The data on the frequency of emesis and scratchings were analyzed by the Kruskal-Wallis (KW) nonparametric one-way analysis of variance (ANOVA) and post hoc analysis by Dunn's multiple comparisons test or Mann-Whitney test. A P value of <0.05 was necessary to attain statistical significance. The incidence of emesis (number of shrews vomiting) was analyzed by the Fisher's exact test to determine whether there were differences between groups. When appropriate, pairwise comparisons were also made by this method. Two-way analysis of variance using the Kruskal-Wallis or Fisher's exact tests were initially utilized to respectively analyze the dose-response results of GR73632 on emesis and scratching behaviors, and percentage of shrews vomiting in saporin- and corresponding saline-pretreated control shrews. […] For some emesis data, the two-tailed Mann-Whitney test was used. The SP tissue concentration data were analyzed by a one-way ANOVA followed by Dunnett's t test as post hoc analysis. Fos-IR was quantified by counting immunopositive nuclei within each hemisection containing the region of interest (ROI). The number of nuclei was averaged across sections with the ROI for each animal, and the group mean and standard error obtained.

Least Shrew [3] = test: Dose response emesis and scratching studies with tachykinin receptor agonists; settings: for increase in the frequency of vomiting vs vehicle control: 30 min observation
Description: The present protocols were based upon preliminary studies as well as published findings in the Least Shrew. Darmani, 2001a; Darmani et al., 69 Pharmacol. Biochem. Behay. 239-49 (2001b). On the test day, the shrews were allowed to acclimate to the test laboratory for at least one hour prior to experimentation. To habituate the animals to the test environment, each shrew was randomly selected and transferred to a 20 cm×18 cm×21 cm clean clear plastic cage and offered four mealworms (Tenebrio sp.) 30 min prior to experimentation. […]
as §1

CCCCC[C@H](O)/C=C/[C@H]1[C@H](O)CC(=O)[C@@H]1C/C=C\CCCC(=O)O [PGE2]
emesis in the Least Shrew (Least Shrew [1]): non-emetic

CCCCC[C@H](O)/C=C/[C@@H]1[C@@H](C/C=C\CCCC(=O)O)[C@@H](O)C[C@H]1O [PGF2α]
emesis in the Least Shrew (Least Shrew [1]): produce emesis

CCCCC[C@@H](/C=C/[C@@H]1[C@@H](C/C=C\CCCC(=O)O)[C@@H]2C[C@H]1OO2)OO [PGG2]
emesis in the Least Shrew (Least Shrew [1]): produce emesis

CCCCC[C@H](O)/C=C/[C@@H]1[C@H]2C/C(=C/CCCC(=O)O)O[C@H]2C[C@H]1O [PGI2]
emesis in the Least Shrew (Least Shrew [1]): non-emetic

CCCCC/C=C\C/C=C\C/C=C\C/C=C\CCCC(=O)O [arachidonic acid]
emesis in the Least Shrew (Least Shrew [1]): produce emesis

SP: tachykinin undecapeptide, nonselective NK1 receptor agonist, purchased from Sigma/RBI
time for brain stem SP-tissue level to attain maximal levels [2]: 15 min
decrease of basal frontal cortex SP concentration ([2]; 5 min): 34%
increase of basal SP blood serum level ([2]; 5 min post-injection): 3488 fold
increase of brain stem SP over basal level ([2]; 5 min post-injection): 156%
decrease of basal frontal cortex SP concentration ([2]; 15 min): 68%
increase of brain stem SP over basal level ([2]; 15 min post-injection): 287%
brain stem SP level ([2]; 30 min): returned to basal tissue level
decrease of basal frontal cortex SP concentration ([2]; 30 min): 89%
SP blood serum level ([2]; by 10 min): rapidly declined
duodenal SP tissue level increase over basal levels ([2]; within 5 min): 1883%
jejunal SP tissue level increase over basal level ([2]; within 5 min): 2133%
emetic activity (Least Shrew [3]; 10 mg/kg i.p.): inactive
emetic activity (Least Shrew [3]; 25 mg/kg i.p.): inactive
percentage of shrews vomiting (Least Shrew [3]; 50 mg/kg i.p.): 82%
increase in the frequency of vomiting vs vehicle control (Least Shrew [3]; 50 mg/kg i.p.): 382%
percentage of shrews vomiting (Least Shrew [3]; 100 mg/kg i.p.): 78%
increase in the frequency of vomiting vs vehicle control (Least Shrew [3]; 100 mg/kg i.p.): 322%
other overt behavioral effect (e.g. scratching) (Least Shrew [3]; at the doses tested, 10-100 mg/kg i.p.): no other overt behavioral effect
onset of first emesis after injection (Least Shrew [3]; i.p. agonist injection): 1 to 2 min
